Data reported in article PMC9481151, “Discovery of new symmetrical and asymmetrical nitrile-containing 1,4-dihydropyridine derivatives as dual kinases and P-glycoprotein inhibitors: synthesis, in vitro assays, and in silico studies” (Journal of Enzyme Inhibition and Medicinal Chemistry, 2022).

What was measured:
NCI-H226 = experiment: NCI single dose (10 µM) SRB screen; assay type: cell-based, human; conditions: non-small cell lung cancer, 48 h
NCI-H322M = experiment: NCI single dose (10 µM) SRB screen; assay type: cell-based; conditions: non-small cell lung cancer, 48 h
HCT-15 = experiment: NCI single dose (10 µM) SRB screen; assay type: cell-based, human; conditions: colon cancer, 48 h
MALME-3M = experiment: NCI single dose (10 µM) SRB screen; assay type: cell-based, human; conditions: melanoma, 48 h
SW-620 = experiment: NCI single dose (10 µM) SRB screen; assay type: cell-based, human; conditions: colon cancer, 48 h
HCC-2998 = experiment: NCI single dose (10 µM) SRB screen; assay type: cell-based, human; conditions: colon cancer, 48 h
CAKI-1 = experiment: NCI single dose (10 µM) SRB screen; assay type: cell-based, human; conditions: renal cancer, 48 h
786-0 = experiment: NCI single dose (10 µM) SRB screen; assay type: cell-based, human; conditions: renal cancer, 48 h
LOX IMVI = experiment: NCI single dose (10 µM) SRB screen; assay type: cell-based, human; conditions: melanoma, 48 h
Aspergillus flavus = experiment: Agar well diffusion method
SR = experiment: NCI single dose (10 µM) SRB screen; assay type: cell-based, human; conditions: leukaemia, 48 h
TK-10 = experiment: NCI single dose (10 µM) SRB screen; assay type: cell-based, human; conditions: renal cancer, 48 h
SNB-19 = experiment: NCI single dose (10 µM) SRB screen; assay type: cell-based, human; conditions: CNS cancer, 48 h
NCI 60 cancer cell lines = experiment: NCI single dose (10 µM) SRB screen, mean over panel; assay type: cell-based, human; conditions: mean over 60 cell lines, 48 h
K-562 = experiment: NCI single dose (10 µM) SRB screen; assay type: cell-based, human; conditions: leukaemia, 48 h
UACC-62 = experiment: NCI single dose (10 µM) SRB screen; assay type: cell-based, human; conditions: melanoma, 48 h
MCF7 = experiment: NCI single dose (10 µM) SRB screen; assay type: cell-based, human; conditions: breast cancer, 48 h
UO-31 = experiment: NCI single dose (10 µM) SRB screen; assay type: cell-based, human; conditions: renal cancer, 48 h
HS578T = experiment: NCI single dose (10 µM) SRB screen; assay type: cell-based, human; conditions: breast cancer, 48 h
Candida albicans = experiment: Agar well diffusion method
PC-3 = experiment: NCI single dose (10 µM) SRB screen; assay type: cell-based, human; conditions: prostate cancer, 48 h
NCI-H460 = experiment: NCI single dose (10 µM) SRB screen; assay type: cell-based, human; conditions: non-small cell lung cancer, 48 h
EKVX = experiment: NCI single dose (10 µM) SRB screen; assay type: cell-based, human; conditions: non-small cell lung cancer, 48 h
Escherichia coli = experiment: Agar well diffusion method; conditions: relative to ciprofloxacin
OVCAR-4 = experiment: NCI single dose (10 µM) SRB screen; assay type: cell-based, human; conditions: ovarian cancer, 48 h
HCT-116 = experiment: NCI single dose (10 µM) SRB screen; assay type: cell-based, human; conditions: colon cancer, 48 h
SF-268 = experiment: NCI single dose (10 µM) SRB screen; assay type: cell-based, human; conditions: CNS cancer, 48 h
U251 = experiment: NCI single dose (10 µM) SRB screen; assay type: cell-based, human; conditions: CNS cancer, 48 h
SN12C = experiment: NCI single dose (10 µM) SRB screen; assay type: cell-based, human; conditions: renal cancer, 48 h
DU-145 = experiment: NCI single dose (10 µM) SRB screen; assay type: cell-based, human; conditions: prostate cancer, 48 h
MDA-MB-231 = experiment: NCI single dose (10 µM) SRB screen; assay type: cell-based, human; conditions: breast cancer, 48 h
OVCAR-5 = experiment: NCI single dose (10 µM) SRB screen; assay type: cell-based, human; conditions: ovarian cancer, 48 h
HT29 = experiment: NCI single dose (10 µM) SRB screen; assay type: cell-based, human; conditions: colon cancer, 48 h
A498 = experiment: NCI single dose (10 µM) SRB screen; assay type: cell-based, human; conditions: renal cancer, 48 h
KM12 = experiment: NCI single dose (10 µM) SRB screen; assay type: cell-based, human; conditions: colon cancer, 48 h
OVCAR-8 = experiment: NCI single dose (10 µM) SRB screen; assay type: cell-based, human; conditions: ovarian cancer, 48 h
UACC-257 = experiment: NCI single dose (10 µM) SRB screen; assay type: cell-based, human; conditions: melanoma, 48 h
NCI-H23 = experiment: NCI single dose (10 µM) SRB screen; assay type: cell-based, human; conditions: non-small cell lung cancer, 48 h
SK-MEL-2 = experiment: NCI single dose (10 µM) SRB screen; assay type: cell-based, human; conditions: melanoma, 48 h
NCI-H522 = experiment: NCI single dose (10 µM) SRB screen; assay type: cell-based, human; conditions: non-small cell lung cancer, 48 h
MDA-MB-468 = experiment: NCI single dose (10 µM) SRB screen; assay type: cell-based, human; conditions: breast cancer, 48 h
T-47D = experiment: NCI single dose (10 µM) SRB screen; assay type: cell-based, human; conditions: breast cancer, 48 h
IGROV1 = experiment: NCI single dose (10 µM) SRB screen; assay type: cell-based, human; conditions: ovarian cancer, 48 h
NCI/ADR-RES = experiment: NCI single dose (10 µM) SRB screen; assay type: cell-based, human; conditions: ovarian cancer, 48 h
MOLT-4 = experiment: NCI single dose (10 µM) SRB screen; assay type: cell-based, human; conditions: leukaemia, 48 h
SK-MEL-5 = experiment: NCI single dose (10 µM) SRB screen; assay type: cell-based, human; conditions: melanoma, 48 h
SF-539 = experiment: NCI single dose (10 µM) SRB screen; assay type: cell-based, human; conditions: CNS cancer, 48 h
M14 = experiment: NCI single dose (10 µM) SRB screen; assay type: cell-based, human; conditions: melanoma, 48 h
OVCAR-3 = experiment: NCI single dose (10 µM) SRB screen; assay type: cell-based, human; conditions: ovarian cancer, 48 h
COLO 205 = experiment: NCI single dose (10 µM) SRB screen; assay type: cell-based, human; conditions: colon cancer, 48 h
RXF 393 = experiment: NCI single dose (10 µM) SRB screen; assay type: cell-based, human; conditions: renal cancer, 48 h
ACHN = experiment: NCI single dose (10 µM) SRB screen; assay type: cell-based, human; conditions: renal cancer, 48 h

CC1=C(C(=O)OC(C)C)C(c2cccc(C#N)c2)C(C(=O)OC(C)C)=C(C)N1 [Compound 1c, Diisopropyl 4-(3-cyanophenyl)-2,6-dimethyl-1,4-dihydropyridine-3,5-dicarboxylate]
GI% NCI-H226 (NCI-H226): – (Only GI% ≥ 10 are shown)
GI% NCI-H322M (NCI-H322M): – (Only GI% ≥ 10 are shown)
GI% HCT-15 (HCT-15): 10%
GI% MALME-3M (MALME-3M): – (Only GI% ≥ 10 are shown)
GI% SW-620 (SW-620): – (Only GI% ≥ 10 are shown)
GI% HCC-2998 (HCC-2998): – (Only GI% ≥ 10 are shown)
GI% CAKI-1 (CAKI-1): 19%
GI% 786-0 (786-0): 16%
GI% LOX IMVI (LOX IMVI): – (Only GI% ≥ 10 are shown)
zone of inhibition at 1000 µg/mL (Aspergillus flavus; Aspergillus flavus, 24 h, read-out: Diameter of inhibition zone, A. flavus): 13 mm
% activity index, A. flavus (Aspergillus flavus; relative to clotrimazole): 52%
GI% SR (SR): 18%
GI% TK-10 (TK-10): – (Only GI% ≥ 10 are shown)
GI% SNB-19 (SNB-19): – (Only GI% ≥ 10 are shown)
Mean GI% (NCI 60 cancer cell lines): 6%
GI% K-562 (K-562): 25%
GI% UACC-62 (UACC-62): 14%
GI% MCF7 (MCF7): 11%
GI% UO-31 (UO-31): – (Only GI% ≥ 10 are shown)
GI% HS578T (HS578T): – (Only GI% ≥ 10 are shown)
zone of inhibition at 1000 µg/mL (Candida albicans; Candida albicans, 24 h, read-out: Diameter of inhibition zone, C. albicans): 10 mm
% activity index, C. albicans (Candida albicans; relative to clotrimazole): 37%
GI% PC-3 (PC-3): 29%
GI% NCI-H460 (NCI-H460): – (Only GI% ≥ 10 are shown)
GI% EKVX (EKVX): – (Only GI% ≥ 10 are shown)
% activity index, E. coli (Escherichia coli): – (Values below 25 are of limited value and not shown as they refer either to inactive or non-diffusing compounds)
GI% OVCAR-4 (OVCAR-4): – (Only GI% ≥ 10 are shown)
GI% HCT-116 (HCT-116): 13%
GI% SF-268 (SF-268): – (Only GI% ≥ 10 are shown)
GI% U251 (U251): – (Only GI% ≥ 10 are shown)
GI% SN12C (SN12C): – (Only GI% ≥ 10 are shown)
GI% DU-145 (DU-145): – (Only GI% ≥ 10 are shown)
GI% MDA-MB-231 (MDA-MB-231): – (Only GI% ≥ 10 are shown)
GI% OVCAR-5 (OVCAR-5): – (Only GI% ≥ 10 are shown)
GI% HT29 (HT29): – (Only GI% ≥ 10 are shown)
GI% A498 (A498): – (Only GI% ≥ 10 are shown)
GI% KM12 (KM12): – (Only GI% ≥ 10 are shown)
GI% OVCAR-8 (OVCAR-8): – (Only GI% ≥ 10 are shown)
GI% UACC-257 (UACC-257): – (Only GI% ≥ 10 are shown)
GI% NCI-H23 (NCI-H23): – (Only GI% ≥ 10 are shown)
GI% SK-MEL-2 (SK-MEL-2): – (Only GI% ≥ 10 are shown)
GI% NCI-H522 (NCI-H522): 11%
GI% MDA-MB-468 (MDA-MB-468): 22%
GI% T-47D (T-47D): 30%
GI% IGROV1 (IGROV1): – (Only GI% ≥ 10 are shown)
GI% NCI/ADR-RES (NCI/ADR-RES): – (Only GI% ≥ 10 are shown)
GI% MOLT-4 (MOLT-4): 17%
GI% SK-MEL-5 (SK-MEL-5): – (Only GI% ≥ 10 are shown)
GI% SF-539 (SF-539): – (Only GI% ≥ 10 are shown)
GI% M14 (M14): – (Only GI% ≥ 10 are shown)
GI% OVCAR-3 (OVCAR-3): – (Only GI% ≥ 10 are shown)
GI% COLO 205 (COLO 205): – (Only GI% ≥ 10 are shown)
GI% RXF 393 (RXF 393): – (Only GI% ≥ 10 are shown)
GI% ACHN (ACHN): – (Only GI% ≥ 10 are shown)
